Test results published in US5401725A, “Neovascularization inhibition by adenosine-5'-phosphosulfates” (Unitika Ltd., priority 1990, dated 1995).

How the values were obtained:
[1] = tested on: capillary vessel hyperplasia (experimental diabetic retinopathy); experiment: therapeutic effect on experimental diabetic retinopathy; assay type: in vivo, rat (wister); conditions: for beneficial effect on the pathologic state / improving effect of pathologic state: I.P.; for beneficial effect on the pathologic state: ten days; for improving effect of pathologic state: ten consecutive days
Protocol: First, streptozocin in an amount of 65 mg/kg was administered to a six-week aged male wister rat from its vena caudalis, and about three months thereafter, 3,3'-iminodipropionitrile was administered. Rats in which abnormal growth of capillary vessel (hyperplasia retinitis) was observed were screened out and were subjected to a medicament administration test with ten rats as a group.
For comparison purposes, the effect of the medroxyprogesterone acetate (MPA), the conventional substance for inhibiting the neovascularization, was also tested by the same procedure as described above.

[2] = tested on: neovascularization of chorio-allantoic membranes; experiment: neovascularization inhibition on chorio-allantoic membranes of fertilized fowl eggs; assay type: in vivo; conditions: for neovascularization inhibitory rate: two days; for neovascularization inhibitory effect (in words): commercially available
[3] = tested on: neovascularization in the cornea; experiment: inhibition of neovascularization in the cornea of rabbits (slow-releasing pellet); assay type: in vivo, rabbit; conditions: 100 μg and 1.0 mg in pellet with 10 μg prostaglandin E1 or 200 μg cuprous chloride; seven days
[4] = toxicity in rats, parenteral administration; assay type: in vivo, rat; conditions: 500 to 3,500 mg/kg in 50% dimethylsulfoxide, I.V. or I.P.

In the case of `Nc1ncnc2c1ncn2[C@@H]1O[C@H](COP(=O)(O)OS(=O)(=O)O)[C@@H](OP(=O)(O)O)[C@H]1O` [PAPS, 3-phosphoadenosine 5'-phosphosulfate], the “beneficial effect on the pathologic state” value ([1]; 1.5 mg/kg administration group) is reported as 10%, the “beneficial effect on the pathologic state” value ([1]; 3.0 mg/kg group) is reported as 70% and the “beneficial effect on the pathologic state” value ([1]; 6.0 mg/kg group) is reported as “at least 80%”. The “improving effect of pathologic state” value ([1]; Table 3, 1.5 mg/kg) was “+ (improving effects of pathologic state of 10 to 30%)”, the “improving effect of pathologic state” value ([1]; Table 3, 3.0 mg/kg) was “++ (30 to 70%)” and the “improving effect of pathologic state” value ([1]; Table 3, 4.5 mg/kg) was “+++ (70 to 100%)”. The “improving effect of pathologic state” value ([1]; Table 3, 6.0 mg/kg) was “+++ (70 to 100%)”, the “therapeutic effect as compared with MPA (in words)” value ([1]; any of the doses (1.5-6.0 mg/kg), compared with MPA) was “excellent therapeutic effect” and the neovascularization inhibitory rate ([2]; Table 1, commercially available (Sigma), dose 1 μg) was “+ (10 to 80% (+))”. The neovascularization inhibitory rate ([2]; Table 1, commercially available (Sigma), dose 10 μg) was “++ (80 to 70% (++))”, the neovascularization inhibitory rate ([2]; Table 1, commercially available (Sigma), dose 100 μg) was “++ (80 to 70% (++))” and the neovascularization inhibitory rate ([2]; Table 1, commercially available (Sigma), dose 1,000 μg) was “+++ (70 to 100% (+++))”. The neovascularization inhibitory rate ([2]; Table 2, enzyme-synthesized, dose 1 μg) was “+ (10 to 80% (+))”, the neovascularization inhibitory rate ([2]; Table 2, enzyme-synthesized, dose 10 μg) was “++ (80 to 70% (++))” and the neovascularization inhibitory rate ([2]; Table 2, enzyme-synthesized, dose 100 μg) was “++ (80 to 70% (++))”. The neovascularization inhibitory rate ([2]; Table 2, enzyme-synthesized, dose 1,000 μg) was “+++ (70 to 100% (+++))”, the “neovascularization inhibitory effect (in words)” value ([2]; dose 10 μg) was “slight effect” and the “neovascularization inhibitory effect (in words)” value ([2]; dose at least 100 μg) was “perfect neovascularization inhibitory effect”. The “neovascularization inhibition (in words)” value ([2]; enzyme-synthesized, dose range 1 to 1,000 μg) was “inhibited neovascularization in a dose-dependent manner”, the “inhibition of neovascularization caused by prostaglandin E1 or cuprous chloride” value [3] was “perfectly inhibit the neovascularization” and the intoxication or lethality [4] was “no cases of intoxication or lethality”.
In the case of `CC(=O)O[C@]1(C(C)=O)CC[C@H]2[C@@H]3C[C@H](C)C4=CC(=O)CC[C@]4(C)[C@H]3CC[C@@]21C` [MPA, medroxyprogesterone acetate, reference compound], the “improving effect of pathologic state” value ([1]; Table 3, 1.5 mg/kg) is reported as “-”, the “improving effect of pathologic state” value ([1]; Table 3, 3.0 mg/kg) is reported as “+ (improving effects of pathologic state of 10 to 30%)” and the “improving effect of pathologic state” value ([1]; Table 3, 4.5 mg/kg) is reported as “+ (improving effects of pathologic state of 10 to 30%)”. The “improving effect of pathologic state” value ([1]; Table 3, 6.0 mg/kg) was “++ (30 to 70%)”.
